The subject of assay [1] is CAL-120, human breast adenocarcinoma cells. As to the kind of experiment: Proliferation assay CAL-120 (crystal violet, 4 days). The class given is cell-based. As to conditions: Homo sapiens, CAL-120, 96 h, CAL-120 cells, median, read-out: Prolif-CAL-120, IC50-[mol/l] (median). The procedure, abridged: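 Growth was measured by crystal violet staining after cells had been treated with compounds (0.01-10 µmol/L, 0.1% DMSO) for 4 days, beginning 24 h after seeding. Values were normalized to a zero-point plate and to untreated controls, and IC50 values were derived by a four-parameter fit.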

The target of another assay is CDK12/CycK (Homo sapiens, UniProt Q9NYV4). The assay is described as follows: CDK12/CycK high ATP kinase assay (TR-FRET, 2 mM ATP). The note with it: 2 mM ATP (high ATP); median; read-out: CDK12/CyclinK, 2 mM ATP (high ATP), IC50-[mol/l] (median). The class given is biochemical. The procedure, abridged:
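Read-out is TR-FRET (Eu-anti-rabbit IgG, anti-phospho-c-Myc Ser62 antibody, streptavidin-XL665) after EDTA stop. Reaction ran 60 min at 22 °C using 1 µM biotin-peptide and high ATP (2 mM) with roughly 0.75 nM recombinant CDK12/CycK, after 15 min compound pre-binding; normalised emission ratios yield IC50.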
(TR-FRET usually uses a lanthanide donor and a delayed reading to cut background.)

Sequence of CDK12/CycK (Q9NYV4 with tags, fused parts or gaps): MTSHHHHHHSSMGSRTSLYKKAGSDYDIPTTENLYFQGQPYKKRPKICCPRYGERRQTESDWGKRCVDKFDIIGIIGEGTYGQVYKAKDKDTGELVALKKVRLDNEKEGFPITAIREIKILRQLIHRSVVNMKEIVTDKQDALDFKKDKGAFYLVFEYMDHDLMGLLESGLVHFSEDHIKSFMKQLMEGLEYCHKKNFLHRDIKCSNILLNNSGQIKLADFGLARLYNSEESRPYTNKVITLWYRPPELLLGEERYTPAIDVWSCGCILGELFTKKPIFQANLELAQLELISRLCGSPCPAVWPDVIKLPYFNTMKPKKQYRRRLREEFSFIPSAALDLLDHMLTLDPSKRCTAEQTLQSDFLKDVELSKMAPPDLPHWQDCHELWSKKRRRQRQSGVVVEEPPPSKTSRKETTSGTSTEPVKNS
Sequence of CDK12/CycK (O75909 1-300 partner limits assumed): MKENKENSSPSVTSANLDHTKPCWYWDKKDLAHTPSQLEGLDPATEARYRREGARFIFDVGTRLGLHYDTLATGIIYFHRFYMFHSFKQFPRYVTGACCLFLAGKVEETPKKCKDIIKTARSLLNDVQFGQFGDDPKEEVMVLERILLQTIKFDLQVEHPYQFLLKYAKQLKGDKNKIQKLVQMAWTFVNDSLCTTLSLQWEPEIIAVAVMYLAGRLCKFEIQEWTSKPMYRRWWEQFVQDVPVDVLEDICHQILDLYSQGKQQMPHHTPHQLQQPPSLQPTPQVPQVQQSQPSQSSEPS

For the compound `CN(CCN1CCCC1)c1nc(NCc2nc3ccccc3[nH]2)n2ncc(Br)c2n1` [Example 239, N4-(1H-benzimidazol-2-ylmethyl)-8-bromo-N2-methyl-N2-(2-pyrrolidin-1-ylethyl)pyrazolo[1,5-a][1,3,5]triazine-2,4-diamine], the IC50 in assay [1] is 436 nM; on CDK12/CycK, greater than 20000 nM.
The like results for `CN1CCN(c2nc(NCc3nc4ccccc4[nH]3)n3ncc(-c4ccncc4)c3n2)CC1` [Example 242, N-[(1H-benzimidazol-2-yl)methyl]-2-(4-methylpiperazin-1-yl)-8-(pyridin-4-yl)pyrazolo[1,5-a][1,3,5]triazin-4-amine] were, in that order, 857 nM and greater than 20000 nM.
As to `Brc1cnn2c(NCc3nc4ccccc4[nH]3)nc(NCCN3CCCC3)nc12` [Example 235, N4-(1H-benzimidazol-2-ylmethyl)-8-bromo-N2-(2-pyrrolidin-1-ylethyl)pyrazolo[1,5-a][1,3,5]triazine-2,4-diamine], the results for the IC50 (in assay [1]; on CDK12/CycK) were 274 nM and greater than 20000 nM, respectively.
As to `CC(C)c1cnn2c(NCc3nc4ccccc4[nH]3)nc(Nc3ccccc3)nc12` [Example 13, N^4-[(1H-benzimidazol-2-yl)methyl]-N^2-phenyl-8-(propan-2-yl)pyrazolo[1,5-a][1,3,5]triazine-2,4-diamine], the IC50 on CDK12/CycK was greater than 20000 nM.
Regarding `O=C1CN(c2nc(NCc3nc4ccccc4[nH]3)n3ncc(Br)c3n2)CCN1` [Example 167, 4-(4-{[(1H-benzimidazol-2-yl)methyl]amino}-8-bromopyrazolo[1,5-a][1,3,5]triazin-2-yl)piperazin-2-one], the IC50 in assay [1] stood at 70.4 nM; at CDK12/CycK it was 7120 nM.
For the compound `CC(C)c1cnn2c(NCc3nc4ccccc4[nH]3)nc(Nc3ccncc3)nc12` [Example 14, N^4-[(1H-benzimidazol-2-yl)methyl]-8-(propan-2-yl)-N^2-(pyridin-4-yl)pyrazolo[1,5-a][1,3,5]triazine-2,4-diamine], on CDK12/CycK, the IC50 was greater than 16400 nM.
In the case of `OCCNc1nc(NCc2nc3ccccc3[nH]2)n2ncc(Br)c2n1` [Example 228, 2-[(4-{[(1H-benzimidazol-2-yl)methyl]amino}-8-bromopyrazolo[1,5-a][1,3,5]triazin-2-yl)amino]ethan-1-ol], the figures for the IC50 (in assay [1]; at CDK12/CycK) were 273 nM and greater than 20000 nM, respectively.
`CN(C)[C@@H]1CCN(c2nc(NCc3nc4ccccc4[nH]3)n3ncc(Br)c3n2)C1` [Example 178, N-[(1H-benzimidazol-2-yl)methyl]-8-bromo-2-[(3R)-3-(dimethylamino)pyrrolidin-1-yl]pyrazolo[1,5-a][1,3,5]triazin-4-amine]: the results for the IC50 (in assay [1]; at CDK12/CycK) were 96.8 nM and greater than 20000 nM, respectively.
Take `CN(C)C1CCN(c2nc(NCc3nc4ccccc4[nH]3)n3ncc(Br)c3n2)CC1` [Example 201, N-[(1H-benzimidazol-2-yl)methyl]-8-bromo-2-[4-(dimethylamino)piperidin-1-yl]pyrazolo[1,5-a][1,3,5]triazin-4-amine]: the IC50 is 126 nM in assay [1] and greater than 20000 nM at CDK12/CycK.
On to `CN(C)[C@H]1CCN(c2nc(NCc3nc4ccccc4[nH]3)n3ncc(Br)c3n2)C1` [Example 177, N-[(1H-benzimidazol-2-yl)methyl]-8-bromo-2-[(3S)-3-(dimethylamino)pyrrolidin-1-yl]pyrazolo[1,5-a][1,3,5]triazin-4-amine], for which the IC50 in assay [1] was 68.8 nM; at CDK12/CycK, greater than 20000 nM.
Regarding `COCCNc1nc(NCc2nc3ccccc3[nH]2)n2ncc(Br)c2n1` [Example 230, N4-(1H-benzimidazol-2-ylmethyl)-8-bromo-N2-(2-methoxyethyl)pyrazolo[1,5-a][1,3,5]triazine-2,4-diamine], the IC50 was 313 nM in assay [1] and greater than 20000 nM on CDK12/CycK.
As to `O[C@H]1CCN(c2nc(NCc3nc4ccccc4[nH]3)n3ncc(Br)c3n2)C1` [Example 224, (3S)-1-(4-{[(1H-benzimidazol-2-yl)methyl]amino}-8-bromopyrazolo[1,5-a][1,3,5]triazin-2-yl)pyrrolidin-3-ol], the IC50 was 57 nM in assay [1] and 15600 nM at CDK12/CycK.

Source of the values: patent US20230117034A1, “PYRAZOLOTRIAZINES” (Bayer Aktiengesellschaft, priority 2019, published 2023).
